According to patent US20230167088A1, “1-PYRAZINYLPYRAZOLYL-3-OXYALKYL ACIDS AND THEIR DERIVATIVES, AND THEIR USE FOR CONTROL OF UNDESIRED PLANT GROWTH” (BAYER AKTIENGESELLSCHAFT, priority 2020, published 2023):

What was measured:
SETVI [1] = assay: Herbicidal pre-emergence action 2a (greenhouse pots, visual scoring); type: in vivo, Setaria viridis; settings: dosage 320 g/ha, visual scoring after about 3 weeks vs untreated controls
Description: (§1) [table] a) Seeds of monocotyledonous and dicotyledonous weed plants and crop plants are placed in plastic or organic plant pots and covered with soil. The compounds of the invention, formulated in the form of wettable powders (WP) or as emulsion concentrates (EC), are then applied onto the surface of the covering soil as aqueous suspension or emulsion with addition of 0.5% additive at a water application rate of 600 1/ha (converted). After the treatment, the pots are placed in a greenhouse and kept under good growth conditions for the trial plants. After about 3 weeks, the effect of the preparations is scored visually in comparison with untreated controls as percentages. For example, 100% activity=the plants have died, 0% activity=like control plants. Tables B1 to B15 below show the effects of selected compounds of the general formula (I) according to Tables 1 and 2 on various harmful plants and an application rate corresponding to 320 g/ha and/or 80 g/ha, which were obtained by the experimental procedure mentioned above.

ECHCG = assay: Herbicidal post-emergence action 1a (greenhouse pots, visual rating); type: in vivo, Echinochloa crus-galli; settings: Dosage 320 g/ha; rated visually about 3 weeks after treatment; 100% = plants have died, 0% = like control plants
Protocol: (§2) [table] a) Seeds of monocotyledonous and dicotyledonous weeds and crop plants are placed in sandy loam in plastic or organic plant pots, covered with soil and cultivated in a greenhouse under controlled growth conditions. 2 to 3 weeks after sowing, the test plants are treated at the one-leaf stage. The compounds of the invention, formulated in the form of wettable powders (WP) or as emulsion concentrates (EC), are then sprayed onto the green parts of the plants as aqueous suspension or emulsion with addition of 0.5% additive at a water application rate of 600 1/ha (converted). After the test plants have been kept in the greenhouse under optimum growth conditions for about 3 weeks, the activity of the preparations is rated visually in comparison to untreated controls. For example, 100% activity=the plants have died, 0% activity=like control plants. Tables A1 to A15 below show the effects of selected compounds of the general formula (I) according to Tables 1 and 2 on various harmful plants and an application rate corresponding to 320 g/ha and/or 80 g/ha, which were obtained by the experimental procedure mentioned above.

SETVI [2] = assay: as above; type: in vivo, Setaria viridis; settings: rated visually about 3 weeks after treatment, 100% = plants have died, 0% = like control plants
Protocol: as §2

AMARE [3] = assay: Herbicidal pre-emergence action 2a (greenhouse pots, visual scoring); type: in vivo, Amaranthus retroflexus; settings: dosage 320 g/ha, visual scoring after about 3 weeks vs untreated controls
Description: as §1

LOLRI [4] = assay: as above; type: in vivo, Lolium rigidum; settings: dosage 320 g/ha, visual scoring after about 3 weeks vs untreated controls
Description: as §1

POLCO [5] = assay: Herbicidal post-emergence action 1a (greenhouse pots, visual rating); type: in vivo, Polygonum convolvulus; settings: visual rating about 3 weeks after treatment
Protocol: as §2

MATIN [6] = assay: as above; type: in vivo, Matricaria inodora; settings: dosage 320 g/ha, visual rating about 3 weeks after treatment
Protocol: as §2

VERPE [7] = assay: Herbicidal pre-emergence action 2a (greenhouse pots, visual scoring); type: in vivo, Veronica persica; settings: dosage 320 g/ha, visual scoring after about 3 weeks vs untreated controls
Description: as §1

ALOMY [8] = assay: as above; type: in vivo, Alopecurus myosuroides; settings: dosage 320 g/ha, visual scoring after about 3 weeks
Description: as §1

AMARE [9] = assay: Herbicidal post-emergence action 1a (greenhouse pots, visual rating); type: in vivo, Amaranthus retroflexus; settings: visual rating about 3 weeks after treatment
Protocol: as §2

VERPE [10] = assay: as above; type: in vivo, Veronica persica; settings: visual rating about 3 weeks after treatment
Protocol: as §2

ALOMY [11] = assay: as above; type: in vivo, Alopecurus myosuroides; settings: rated visually about 3 weeks after treatment, 100% = plants have died, 0% = like control plants
Protocol: as §2

LOLRI [12] = assay: as above; type: in vivo, Lolium rigidum; settings: Dosage 320 g/ha; rated visually about 3 weeks after treatment; 100% = plants have died, 0% = like control plants
Protocol: as §2

ABUTH = assay: as above; type: in vivo, Abutilon theophrasti; settings: visual rating about 3 weeks after treatment
Protocol: as §2

AVEFA [13] = assay: as above; type: in vivo, Avena fatua; settings: rated visually about 3 weeks after treatment, 100% = plants have died, 0% = like control plants
Protocol: as §2

MATIN [14] = assay: Herbicidal pre-emergence action 2a (greenhouse pots, visual scoring); type: in vivo, Matricaria inodora; settings: dosage 320 g/ha, visual scoring after about 3 weeks vs untreated controls
Description: as §1

POLCO [15] = assay: as above; type: in vivo, Polygonum convolvulus; settings: dosage 320 g/ha, visual scoring after about 3 weeks vs untreated controls
Description: as §1

AVEFA [16] = assay: as above; type: in vivo, Avena fatua; settings: dosage 320 g/ha, visual scoring after about 3 weeks
Description: as §1

SMILES | Pre-emergence action against SETVI in % (SETVI [1]) [%] | Post-emergence action against ECHCG in % (ECHCG) [%] | Post-emergence action against SETVI in % (SETVI [2]; Dosage 320 g/ha) [%] | Pre-emergence action against AMARE in % (AMARE [3]) [%] | Pre-emergence action against LOLRI in % (LOLRI [4]) [%] | Post-emergence action against POLCO in % (POLCO [5]; dosage 320 g/ha) [%] | Post-emergence action against MATIN in % (MATIN [6]) [%] | Pre-emergence action against VERPE in % (VERPE [7]) [%] | Pre-emergence action against ALOMY in % (ALOMY [8]) [%] | Post-emergence action against AMARE in % (AMARE [9]; dosage 320 g/ha) [%] | Post-emergence action against ALOMY in % (ALOMY [11]; Dosage 80 g/ha) [%] | Post-emergence action against ALOMY in % (ALOMY [11]; Dosage 320 g/ha) [%] | Post-emergence action against AVEFA in % (AVEFA [13]; Dosage 320 g/ha) [%] | also measured
COC(=O)[C@@H](C)Oc1nn(-c2cnccn2)c(-c2ccc(F)nc2)c1I [Example I-89] | 100 | 80 | 90 | 100 | 100 | 90 | 80 | 100 | 100 | 90 | 80 | 100 | 100 | Post-emergence action against POLCO in % (POLCO [5]; dosage 80 g/ha): 90%; Post-emergence action against AMARE in % (AMARE [9]; dosage 80 g/ha): 90%; Post-emergence action against VERPE in % (VERPE [10]; dosage 80 g/ha): 80%; Post-emergence action against VERPE in % (VERPE [10]; dosage 320 g/ha): 90%; Post-emergence action against LOLRI in % (LOLRI [12]): 100%; Post-emergence action against ABUTH in % (ABUTH; dosage 80 g/ha): 90%; Post-emergence action against ABUTH in % (ABUTH; dosage 320 g/ha): 90%; Post-emergence action against AVEFA in % (AVEFA [13]; Dosage 80 g/ha): 90%
O=C(O)COc1nn(-c2cnccn2)c(-c2ccc(F)nc2)c1C1CC1 [Example I-83] | – | – | – | – | – | – | 80 | – | – | – | 80 | 80 | – | –
CCOC(=O)COc1nn(-c2nccnc2F)c(-c2ccc(F)nc2)c1Br [Example I-76] | – | – | – | 90 | – | – | – | – | – | – | – | – | – | Pre-emergence action against MATIN in % (MATIN [14]): 90%
COC(=O)CNC(=O)[C@@H](C)Oc1nn(-c2cnccn2)c(-c2ccc(F)nc2)c1Br [II-03] | 100 | 80 | 90 | 100 | 100 | 80 | – | 100 | 100 | 90 | 80 | 90 | 90 | Post-emergence action against SETVI in % (SETVI [2]; Dosage 80 g/ha): 90%; Pre-emergence action against POLCO in % (POLCO [15]): 90%; Pre-emergence action against AVEFA in % (AVEFA [16]): 100%
